Patent US5661148A, “Pyrrolo[2,3-d]pyrimidine derivatives, process for producing the same and pharmaceutical preparation comprising the same as active ingredient” (Teijin Limited, priority 1989, dated 1997)

Columns and labels:
hypoxemia model animals [1] = assay: Effect on partial pressure value of gases in arterial blood, injection system, Method B (acetic acid induced respiratory insufficiency); assay type: in vivo, rat (Male Wister strain); settings: continuous i.v. 0.1 mg/kg/min., 10 min.; for Activity for Decreasing PaCO2: increment PaCO2: PaCO2 after minus before administration; for Activity for Increasing PaO2: increment PaO2: PaO2 after minus before administration
Protocol: Effect on Partial Pressure Value of Gases in Arterial Blood (Injection system) <Method B> Male Wister strain rats (body about 300 g) were anesthetized with halothane inhalant, and then 2.0% acetic acid was […] injected at 0.6 ml/kg to induce a respiratory insufficiency. The animals were intra-peritoneally anesthetized with urethane-α-chloralose, and a cannula was inserted into the femoral artery. After the hypoxemic state (PaO2 : 60-70 mmHg) was observed a compound in accordance with the present invention (test substance) was continuously intravenously injected into these hypoxemia model animals (0.1 mg/kg/min., 10 min.), and then a partial pressure value of gases (PaO2, PaCO2) in arterial blood was immediately determined.

hypoxemia animals = assay: Effect on partial pressure value of gases in arterial blood, oral administration system, Method B (3 days after acetic acid); assay type: in vivo, rat (Male wistar strain); settings: 60 min. after administration
Protocol: Effect on Partial Pressure Value of Gases in Arterial Blood (Oral Administration System)
Male wistar strain rats (body weight about 350 g) were anesthetized with halothane inhalant, and then 2.0% acetic acid were intratrachealy injected at 0.6 ml/kg body to induce a hypoxemia state. In 3 days after injection with 2.0% acetic acid, rats fasted overnight were anesthetized with halothane inhalant, and a cannula inserted into the femoral artery. After these hypoxemia animals (PaO2 : 60-80 mmHg) were recovered from the anesthesia, a compound in accordance with the present invention (test substance, 10 or 30 mg/kg) was orally administered to the animals. At 60 min. after the administration, the partial pressure value of gases (PaO2, PaCO2) in arterial blood was determined.

hypoxemia model animals [2] = assay: Effect on partial pressure value of gases in arterial blood, injection system, Method A (carbon powder induced hypoxemia); assay type: in vivo, rat (Male Wister strain); settings: continuous i.v. 0.1 mg/kg/min., 10 min.; for Activity for Decreasing PaCO2: increment PaCO2: PaCO2 after minus before administration; for Activity for Increasing PaO2: increment PaO2: PaO2 after minus before administration
Protocol: Effect on Partial Pressure Value of Gases in Arterial Blood (Injection system)
Male Wister strain rats (body weight about 300 g) were anesthetized intra-peritoneally with urethane, and a cannula was inserted into the respiratory tract and the femoral artery, respectively. A suspension (30-100 μm, 10 mg/ml) of carbon powder in a corn oil was intratrachealy injected to induce a hypoxemia state (PaO2; 50-60 mmHg). A compound in accordance with the present invention was continuously intravenously injected into these hypoxemia model animals (0.1 mg/kg/min., 10 min.), and then a partial pressure value of gases (PaO2, PaCO2) in arterial blood was immediately determined.

hypoxemia state rats = assay: Effect on partial pressure value of gases in arterial blood, oral administration system, Method A (acetic acid induced hypoxemia, about 60 min); assay type: in vivo, rat (Male Wistar strain); settings: 60 min. after administration
Protocol: Effect on Partial Pressure Value of Gases in Arterial Blood (Oral Administration System) Method A Male Wistar strain rats (body weight about 250 g) fasted overnight were anesthetized with halothane inhalant, and a cannula then inserted into the femoral artery. After the animals recovered from the anesthesia, they were again anesthetized with halothane inhalant, and then 2.0% acetic acid was […] injected at 0.8 ml/kg to induce a hypoxemia state. After the hypoxemic state (PaO2 :60-80 mmHg) was observed over about 60 min., a compound in accordance with the present invention (test substance, 10 or 30 mg/kg) was orally administered to the animals. Then 60 min. after the administration, the partial pressure value of gases (PaO2, PaCO2) in arterial blood was determined.

Compound	Activity for Decreasing PaCO2: increment PaCO2 (hypoxemia model animals [1])	Activity for Increasing PaO2: increment PaO2 (hypoxemia model animals [1])	further results
C=CCNc1nc(N[C@H]2CC[C@@H](OC)CC2)c2ccn(C)c2n1 [Compound 185]	-6.0 mmHg	+11.7 mmHg	–
C=CCNc1nc(N[C@H]2CC[C@H](OC)CC2)c2ccn(C)c2n1 [Compound 186]	-15.4 mmHg	+12.3 mmHg	Activity for Decreasing PaCO2: increment PaCO2 (hypoxemia animals; 10 mg/kg): -5.3 mmHg; Activity for Increasing PaO2: increment PaO2 (hypoxemia animals; 10 mg/kg): +14.9 mmHg
C=CCNc1nc(N2CCN(C(c3ccc(F)cc3)c3ccc(F)cc3)CC2)c2ccn(CC=C)c2n1 [Compound 143]	–	–	Activity for Decreasing PaCO2: increment PaCO2 (hypoxemia model animals [2]): +1.1 mmHg; Activity for Increasing PaO2: increment PaO2 (hypoxemia model animals [2]): +5.0 mmHg
C=CCNc1nc(N2CCC(OC)CC2)c2ccn(C)c2n1 [Compound 180]	-0.5 mmHg	+6.5 mmHg	–
C=CCNc1nc(N2CCN(C(c3ccc(F)cc3)c3ccc(F)cc3)CC2)c2ccn(C)c2n1 [Compound 133]	–	–	Activity for Decreasing PaCO2: increment PaCO2 (hypoxemia model animals [2]): -0.6 mmHg; Activity for Increasing PaO2: increment PaO2 (hypoxemia model animals [2]): +6.9 mmHg
C=CCNc1nc(NCCCc2ccco2)c2ccn(C)c2n1 [Compound 173]	-13.1 mmHg	+12.0 mmHg	Activity for Decreasing PaCO2: increment PaCO2 (hypoxemia state rats; 10 mg/kg): -3.7 mmHg; Activity for Increasing PaO2: increment PaO2 (hypoxemia state rats; 10 mg/kg): +4.2 mmHg
C=CCNc1nc(NCCc2ccc(OC)cc2)c2ccn(C)c2n1 [Compound 175]	-13.1 mmHg	+15.2 mmHg	–
C=CCNc1nc(NC(C)(C)C)c2ccn(C)c2n1 [Compound 178]	-16.4 mmHg	+16.4 mmHg	Activity for Decreasing PaCO2: increment PaCO2 (hypoxemia animals; 10 mg/kg): -6.6 mmHg; Activity for Increasing PaO2: increment PaO2 (hypoxemia animals; 10 mg/kg): +17.0 mmHg
C=CCNc1nc(N[C@H]2CC[C@H](OCCOCC)CC2)c2ccn(C)c2n1 [Compound 187]	-14.7 mmHg	+13.7 mmHg	Activity for Decreasing PaCO2: increment PaCO2 (hypoxemia animals; 10 mg/kg): +6.9 mmHg; Activity for Increasing PaO2: increment PaO2 (hypoxemia animals; 10 mg/kg): +16.0 mmHg
C=CCNc1nc(N(CCOCC)CCOCC)c2ccn(C)c2n1 [Compound 181]	+1.2 mmHg	+6.4 mmHg	–
C=CCNc1nc(N(C)C)c2ccn(C)c2n1 [Compound 165]	+1.1 mmHg	+7.9 mmHg	Activity for Decreasing PaCO2: increment PaCO2 (hypoxemia state rats; 30 mg/kg): -3.4 mmHg; Activity for Increasing PaO2: increment PaO2 (hypoxemia state rats; 30 mg/kg): +8.5 mmHg
C=CCNc1nc(NCC2CCCO2)c2ccn(C)c2n1 (stereo not drawn) [Compound 179]	+2.4 mmHg	+8.5 mmHg	–
C=CCNc1nc(NC(C)c2ccccc2)c2ccn(C)c2n1.Cl (racemic) [Compound 156, (±)-2-allylamino-7-methyl-4-(1-phenylethylamino)-7H-pyrrolo[2,3-d]pyrimidine hydrochloride]	-9.1 mmHg	–	Activity for Decreasing PaCO2: increment PaCO2 (hypoxemia state rats; 30 mg/kg): -8.1 mmHg; Activity for Increasing PaO2: increment PaO2 (hypoxemia state rats; 30 mg/kg): +7.8 mmHg
C=CCNc1nc(NCc2cccs2)c2ccn(C)c2n1 [Compound 174]	-2.9 mmHg	+5.8 mmHg	–
C=CCNc1nc(N(C)CCc2ccccc2)c2ccn(C)c2n1 [Compound 167]	-6.6 mmHg	–	–
C=CCNc1nc(NC(COC)COC)c2ccn(C)c2n1 [Compound 184]	-0.7 mmHg	+7.8 mmHg	–
C=CCNc1nc(N2C(C)CCCC2C)c2ccn(C)c2n1 (stereo not drawn) [Compound 183]	-4.6 mmHg	+10.7 mmHg	–
C=CCNc1nc(N2CCOCC2)c2ccn(C)c2n1 [Compound 124]	-4.0 mmHg	+5.7 mmHg	Activity for Decreasing PaCO2: increment PaCO2 (hypoxemia animals; 30 mg/kg): -2.5 mmHg; Activity for Increasing PaO2: increment PaO2 (hypoxemia animals; 30 mg/kg): +8.0 mmHg
C=CCNc1nc(N2CCC(OC(C)=O)CC2)c2ccn(C)c2n1 [Compound 119]	–	–	Activity for Decreasing PaCO2: increment PaCO2 (hypoxemia model animals [2]): -2.6 mmHg; Activity for Increasing PaO2: increment PaO2 (hypoxemia model animals [2]): +7.1 mmHg
C=CCNc1nc(NC(C)C)c2ccn(C)c2n1 [Compound 176]	-14.8 mmHg	+22.2 mmHg	Activity for Decreasing PaCO2: increment PaCO2 (hypoxemia animals; 10 mg/kg): -5.4 mmHg; Activity for Increasing PaO2: increment PaO2 (hypoxemia animals; 10 mg/kg): +11.6 mmHg
C=CCNc1nc(N(C)[C@H]2CC[C@H](OC)CC2)c2ccn(C)c2n1 [Compound 189]	-6.0 mmHg	+7.3 mmHg	–
C=CCNc1nc(N2CCCCC2C)c2ccn(C)c2n1 (stereo not drawn) [Compound 182]	–	–	Activity for Decreasing PaCO2: increment PaCO2 (hypoxemia animals; 30 mg/kg): -2.2 mmHg; Activity for Increasing PaO2: increment PaO2 (hypoxemia animals; 30 mg/kg): +3.3 mmHg
C=CCNc1nc(NCc2ccco2)c2ccn(C)c2n1 [Compound 172]	-2.8 mmHg	+12.3 mmHg	–
